“And” between values parts separate entries of the source, which are not always exact repeats. Equal entries are not always repeated. Toxic doses and inconclusive results are not listed. The calls were made as follows: active = survival T/C of 150% or more; inactive = T/C below 125% in these data.
System: CD2F1 mice, L1210 leukemia ip, survival T/C
Experiment: NCI In Vivo Anticancer Drug Screen. Data for tumor model L1210 Leukemia (intraperitoneal) in CD2F1 (CDF1) mice
Details: higher = longer survival
Outline: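 Compound-dosed mice with transplantable tumor versus matched vehicle controls; endpoint ratio T/C reported.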

[1] = endpoint: mean survival time, dose: 25.0 mg/kg/injection, schedule: Q04DX002 (ip), vehicle: saline with Tween-80
[2] = endpoint: mean survival time, dose: 50.0 mg/kg/injection, schedule: Q04DX002 (ip), vehicle: saline with Tween-80
[3] = endpoint: mean survival time, dose: 100.0 mg/kg/injection, schedule: Q04DX003 (ip), vehicle: saline with Tween-80
[4] = endpoint: mean survival time, dose: 200.0 mg/kg/injection, schedule: Q04DX003 (ip), vehicle: saline with Tween-80
[5] = endpoint: mean survival time, dose: 400.0 mg/kg/injection, schedule: Q04DX003 (ip), vehicle: saline with Tween-80
[6] = endpoint: mean survival time, dose: 100.0 mg/kg/injection, schedule: Q01DX009 (ip), vehicle: saline with Tween-80
[7] = endpoint: mean survival time, dose: 200.0 mg/kg/injection, schedule: Q01DX009 (ip), vehicle: saline with Tween-80
[8] = endpoint: mean survival time, dose: 300.0 mg/kg/injection, schedule: Q04DX003 (ip), vehicle: saline with Tween-80
[9] = endpoint: mean survival time, dose: 100.0 mg/kg/injection, schedule: Q01DX001 (ip), vehicle: saline
[10] = endpoint: mean survival time, dose: 400.0 mg/kg/injection, schedule: Q01DX009 (ip), vehicle: saline with Tween-80

Measured: T/C

NS(=O)(=O)O
inactive: endpoint: mean survival time, dose: 12.5 mg/kg/injection, schedule: Q04DX003 (ip), vehicle: saline 98 % of control | endpoint: mean survival time, dose: 25.0 mg/kg/injection, schedule: Q04DX003 (ip), vehicle: saline 110 % of control | endpoint: mean survival time, dose: 50.0 mg/kg/injection, schedule: Q04DX003 (ip), vehicle: saline 102 % of control

CC(=O)Nc1nnn(C)n1
inactive: endpoint: mean survival time, dose: 100.0 mg/kg/injection, schedule: Q04DX003 (ip), vehicle: saline 103 % of control | endpoint: mean survival time, dose: 200.0 mg/kg/injection, schedule: Q04DX003 (ip), vehicle: saline 100 % of control | endpoint: mean survival time, dose: 400.0 mg/kg/injection, schedule: Q04DX003 (ip), vehicle: saline 101 % of control

O=C1c2ccc([N+](=O)[O-])cc2-c2c1cccc2[N+](=O)[O-]
inactive: [1] 95 % of control | [2] 87 % of control

Nn1cnnc1SCc1ccccc1
inactive: endpoint: mean survival time, dose: 100.0 mg/kg/injection, schedule: Q04DX003 (ip), vehicle: other 100 % of control | endpoint: mean survival time, dose: 200.0 mg/kg/injection, schedule: Q04DX003 (ip), vehicle: other 97 % of control | endpoint: mean survival time, dose: 400.0 mg/kg/injection, schedule: Q04DX003 (ip), vehicle: other 105 % of control

O=S(=O)(Nc1c(O)ccc2ccccc12)c1ccccc1
inactive: [3] 97 % of control | [4] 97 % of control | [5] 92 % of control

CC(C)c1cc(O)ccc1N(C)C (tested in a mixture with another compound)
inactive: endpoint: mean survival time, dose: 32.0 micrograms/kg/injection, schedule: Q04DX003 (ip), vehicle: saline 102 % of control | endpoint: mean survival time, dose: 63.0 micrograms/kg/injection, schedule: Q01DX001 (ip), vehicle: saline 98 % of control | endpoint: mean survival time, dose: 63.0 micrograms/kg/injection, schedule: Q04DX003 (ip), vehicle: saline 101 % of control | endpoint: mean survival time, dose: 125.0 micrograms/kg/injection, schedule: Q01DX001 (ip), vehicle: saline 98 % of control | endpoint: mean survival time, dose: 125.0 micrograms/kg/injection, schedule: Q04DX003 (ip), vehicle: saline 90 % of control

O=c1[nH]cnc2[nH]ncc12
inactive: endpoint: mean survival time, dose: 8.4 mg/kg/injection, schedule: Q04DX003 (ip), vehicle: saline with Tween-80 99 % of control | endpoint: mean survival time, dose: 14.0 mg/kg/injection, schedule: Q04DX003 (ip), vehicle: saline with Tween-80 103 % of control | endpoint: mean survival time, dose: 23.4 mg/kg/injection, schedule: Q04DX003 (ip), vehicle: saline with Tween-80 96 % of control | endpoint: mean survival time, dose: 39.0 mg/kg/injection, schedule: Q04DX003 (ip), vehicle: saline with Tween-80 101 % of control and 111 % of control | endpoint: mean survival time, dose: 50.0 mg/kg/injection, schedule: Q01DX009 (ip), vehicle: saline with Tween-80 104 % of control | endpoint: mean survival time, dose: 60.0 mg/kg/injection, schedule: Q01DX006 (ip), vehicle: saline with Tween-80 97 % of control | endpoint: mean survival time, dose: 65.0 mg/kg/injection, schedule: Q04DX003 (ip), vehicle: saline with Tween-80 99 % of control and 104 % of control | [6] 106 % of control | endpoint: mean survival time, dose: 108.0 mg/kg/injection, schedule: Q04DX003 (ip), vehicle: saline with Tween-80 108 % of control and 111 % of control | endpoint: mean survival time, dose: 120.0 mg/kg/injection, schedule: Q01DX006 (ip), vehicle: saline with Tween-80 107 % of control | endpoint: mean survival time, dose: 180.0 mg/kg/injection, schedule: Q04DX003 (ip), vehicle: saline with Tween-80 106 % of control and 109 % of control | [7] 107 % of control | [8] 104 % of control | endpoint: mean survival time, dose: 500.0 mg/kg/injection, schedule: Q04DX003 (ip), vehicle: saline with Tween-80 104 % of control | endpoint: mean survival time, dose: 833.0 mg/kg/injection, schedule: Q04DX003 (ip), vehicle: saline with Tween-80 97 % of control | endpoint: median survival time, dose: 12.5 mg/kg/injection, schedule: Q01DX009 (ip), vehicle: suspension in saline 101 % of control | endpoint: median survival time, dose: 25.0 mg/kg/injection, schedule: Q01DX009 (ip), vehicle: suspension in saline 103 % of control | endpoint: median survival time, dose: 50.0 mg/kg/injection, schedule: Q01DX009 (ip), vehicle: suspension in saline 100 % of control | endpoint: median survival time, dose: 100.0 mg/kg/injection, schedule: Q01DX009 (ip), vehicle: suspension in saline 101 % of control | endpoint: median survival time, dose: 200.0 mg/kg/injection, schedule: Q01DX009 (ip), vehicle: suspension in saline 107 % of control

CC(=O)OCC1OC(OC2C(COC(C)=O)OC(OC(C)=O)C(OC(C)=O)C2OC(C)=O)C(OC(C)=O)C(OC(C)=O)C1OC(C)=O (stereo unspecified)
inactive: [9] 100 % of control | endpoint: mean survival time, dose: 200.0 mg/kg/injection, schedule: Q01DX001 (ip), vehicle: saline 91 % of control | endpoint: mean survival time, dose: 400.0 mg/kg/injection, schedule: Q01DX001 (ip), vehicle: saline 97 % of control

C[Si](C)(C)Oc1cccc(O[Si](C)(C)C)c1
inactive: [6] 92 % of control | [7] 94 % of control | [10] 87 % of control

Nc1nc2c(nc(NCc3ccccc3)n2C2OC(CO)C(O)C2O)c(=O)[nH]1 (stereo unspecified)
inactive: endpoint: mean survival time, dose: 6.25 mg/kg/injection, schedule: Q01DX005 (ip), vehicle: distilled water + Tween-80 97 % of control | endpoint: mean survival time, dose: 12.5 mg/kg/injection, schedule: Q01DX005 (ip), vehicle: distilled water + Tween-80 95 % of control | endpoint: mean survival time, dose: 25.0 mg/kg/injection, schedule: Q01DX005 (ip), vehicle: distilled water + Tween-80 95 % of control | endpoint: mean survival time, dose: 50.0 mg/kg/injection, schedule: Q01DX005 (ip), vehicle: distilled water + Tween-80 90 % of control | endpoint: mean survival time, dose: 100.0 mg/kg/injection, schedule: Q01DX005 (ip), vehicle: distilled water + Tween-80 90 % of control

CC(C)(C)C1=CC(=C2C=C(C(C)(C)C)C(=O)C(C(C)(C)C)=C2)C=C(C(C)(C)C)C1=O
inactive: endpoint: mean survival time, dose: 75.0 mg/kg/injection, schedule: Q04DX003 (ip), vehicle: saline with Tween-80 100 % of control | [6] 95 % of control | endpoint: mean survival time, dose: 150.0 mg/kg/injection, schedule: Q04DX003 (ip), vehicle: saline with Tween-80 100 % of control | [7] 91 % of control | [8] 89 % of control | [10] 91 % of control

CCOc1ccccc1NC(=O)c1ccc(Cl)cc1
inactive: [3] 97 % of control | [4] 100 % of control | [5] 103 % of control

O=C(O)CCC(C(=O)O)c1ccccc1 (stereo unspecified)
inactive: endpoint: mean survival time, dose: 75.0 mg/kg/injection, schedule: Q01DX001 (ip), vehicle: saline 98 % of control | endpoint: mean survival time, dose: 150.0 mg/kg/injection, schedule: Q01DX001 (ip), vehicle: saline 101 % of control | endpoint: mean survival time, dose: 300.0 mg/kg/injection, schedule: Q01DX001 (ip), vehicle: saline 104 % of control

O=C(C=C(C(F)(F)Cl)C(F)(F)Cl)c1cccs1
inactive: endpoint: mean survival time, dose: 5.0 mg/kg/injection, schedule: Q04DX003 (ip), vehicle: saline 98 % of control | endpoint: mean survival time, dose: 10.0 mg/kg/injection, schedule: Q04DX003 (ip), vehicle: saline 104 % of control | endpoint: mean survival time, dose: 20.0 mg/kg/injection, schedule: Q04DX003 (ip), vehicle: saline 103 % of control

CC1(C[N+](C)(C)C)COC(C)(C)O1 (stereo unspecified)
inactive: endpoint: mean survival time, dose: 12.5 mg/kg/injection, schedule: Q04DX002 (ip), vehicle: saline 95 % of control | endpoint: mean survival time, dose: 25.0 mg/kg/injection, schedule: Q01DX001 (ip), vehicle: saline 98 % of control | endpoint: mean survival time, dose: 25.0 mg/kg/injection, schedule: Q04DX002 (ip), vehicle: saline 95 % of control | endpoint: mean survival time, dose: 50.0 mg/kg/injection, schedule: Q01DX001 (ip), vehicle: saline 96 % of control | endpoint: mean survival time, dose: 50.0 mg/kg/injection, schedule: Q04DX002 (ip), vehicle: saline 106 % of control | endpoint: mean survival time, dose: 100.0 mg/kg/injection, schedule: Q01DX001 (ip), vehicle: saline with Tween-80 94 % of control | [9] 103 % of control | endpoint: mean survival time, dose: 100.0 mg/kg/injection, schedule: Q04DX002 (ip), vehicle: saline 95 % of control

O=C(CC(=O)C(F)(F)F)C(F)(F)F.[C-]#[O+].[C-]#[O+].[Mn].c1ccc([PH+](c2ccccc2)c2ccccc2)cc1.c1ccc([PH+](c2ccccc2)c2ccccc2)cc1
inactive: endpoint: mean survival time, dose: 12.5 mg/kg/injection, schedule: Q04DX002 (ip), vehicle: saline with Tween-80 91 % of control | [1] 91 % of control | [2] 95 % of control
